Results reported in patent US20230079439A1, “Compositions and Methods for Enhancing Beta Cell Maturation, Health and Function” (THE REGENTS OF THE UNIVERSITY OF CALIFORNIA, priority 2016, published 2023).

Tests used:
isolated mouse islets = experiment: GSIS test in isolated mouse islets; assay type: cell-based; details: 24 h; 2.5 or 16.7 mM glucose
Protocol: Mice (6 in total) were euthanized by cervical dislocation; the mouse torso was saturated with 70% ethanol. The abdominal cavity was opened completely from anus to diaphragm. The body and tail of the pancreas were removed and separated from fat and large vessels. The pancreas was washed once with HBSS solution and cut into small pieces of approximately 2×3 mm with a scissors. After an additional wash with HBSS solution, the pieces of pancreas were placed in two 50 ml Falcon tubes containing 4 ml of a freshly prepared solution of collagenase (2 mg/ml). After vigorous shaking at 37° C. for approximately 20 min, the collagenase digestion was interrupted by adding 45 ml of ice-chilled HBSS solution. The digested pancreatic tissue was spinned down at 330×g for 3 minutes. Supernatant was removed again and an additional 45 mL of “islet media” was added and spinned down at 330×g for 3 minutes. The histopaque was decanted and the tubes were inverted to drain on an absorbent paper towel for 1 min. The pellet was resuspended in 20 ml for each tube in cold 30% Ficoll solution. […]
Frozen islets medium or lysates were thawed on ice and diluted with water (a typical dilution for the lysate was 300× and for the supernatant—5×). […] The signal was determined by a SpectraMax M5 spectrophotometer. The concentrations of insulin in the samples were normalized by the total protein determined by the BCA assay.

INS-1E cells [1] = experiment: Cell counting (trypan blue) / proliferation and cluster formation; assay type: cell-based, rat; details: 24 h
Protocol: FIG. 7, comprising FIG. 7A through FIG. 7G, depicts the evaluation of the biological activity of HSA-28P in INS-1E cells. FIG. 7A depicts dose-response analysis of the effect of HSA-28P on the rate of insulin secretion in INS-1E cells. The INS-1E cells were grown and trypsinized as described in Methods. Subsequently, cells were mixed with the indicated concentrations of HSA-28P (red columns), non-relevant peptide nanoparticles (NRPNP, green columns), and naked nanoparticles (NP, blue columns) and were seeded in 12-well plates. After 24 h the cells were taken to a GSIS in the presence of 2.5 mM (weak color bars) or 16.7 mM (strong color bars) glucose. FIG. 7B depicts time-course analysis of the effect of HSA-28P on the rate of insulin secretion in INS-1E cells. The INS-1E cells were prepared for the experiment as described above with 1.34 μM of both HSA-28P or NRPNP, and 0.76 μg/ml of NP. After incubation for the time indicated in the graph, the cells were taken to a GSIS as described in Methods. FIG. 7C depicts the measurement of insulin content. The RIA-assay was performed for INS-1E lysates. […] INS-1E cells were treated as described in Panel D. Cells were detached by trypsin and counted as described in Methods and then were visualized with a Cells Sense Live Imaging microscope. […]
Cells were detached by trypsin and colored by Trypan blue. Only uncolored cells were counted. […]

INS-1E cells [2] = experiment: Insulin secretion of INS-1E cells after 5 h incubation with peptidomimetic agent; assay type: cell-based, rat; details: INS-1 β cells
Protocol: FIG. 22, comprising FIG. 22A through FIG. 22C, depicts experimental results of incubation of INS1E cells with peptidomimetic agent. A peptidomimetic agent was designed to mimic neuroligin's binding site for neurexin. Monomers and dimers had no effect on insulin secretion. Multiple dimers were conjugated to PEG-2000 to simulate clustering (reagent HSA-112). Dimers were also clustered on nanoparticles (HSA-637). FIG. 22A depicts INS-1E cells were incubated for 5 h with HSA-112 (blue columns) or HSA-637 (purple) at different concentrations or with vehicle alone (black), washed, and then tested for insulin secretion at 3 mM glucose (striped columns) or at 20 mM glucose (solid columns). […] FIG. 22B depicts a time course: insulin secretion was analyzed after the number of hours indicated following a 5 h incubation with 100 μM HSA-112 (blue), 500 nM HSA-637 (purple) or vehicle alone (black). Incubations were with 3 mM glucose (striped columns) or 20 mM glucose (solid columns). FIG. 22C depicts microscopy where INS-1E cells were incubated with HSA-637 conjugated to a fluorescent dye (Cy5, red) and then washed. Membranes were stained with Alexa Fluor 488 (green). For better visualization, microscopy was in hypotonic saline causing the INS-1E cells to swell and become more rounded.

INS-1E cells [3] = experiment: Glucose-stimulated insulin secretion (GSIS) in INS-1E cells; assay type: cell-based, rat; details: INS-1E cells; 2.5 mM or 16.7 mM glucose
Protocol: FIG. 3, comprising FIG. 3A through FIG. 3D, depicts the evaluation of the biological activity of HSA-112 in INS-1E cells. FIG. 3A depicts a dose-response analysis of the effect of HSA-112 on the rate of insulin secretion in INS-1E cells. The INS-1E cells were grown and treated with increasing doses of HSA-112 for 24 h, as described in Methods. Subsequently, cells were mixed with different concentrations of HSA-112, as indicated in the graph (red columns), PEG2000 (green columns), and free peptide (blue columns) and were seeded in 12-well plates. After 24 h the cells were taken to a GSIS in the presence of 2.5 mM (weak color bars) or 16.7 mM (strong color bars) glucose. FIG. 3B depicts the time-course analysis of the effect of HSA-112 on the rate of insulin secretion in INS-1E cells. The INS-1E cells were prepared for the experiment as described above with 50 μM of HSA-112, PEG2000, or free peptide. After incubation, as indicated in the graph, the cells were taken to a GSIS as described above. FIG. 3C depicts the cell protective effect of HSA-112 under oxidative stress conditions. Cells were prepared for the experiment as described in Methods. Trolox was used as a positive control at a concentration of 100 μM. The oxidative stress was induced in the tissue culture, as described in Methods. Standard MTT analysis (also described in Methods) was used for evaluating the effect of HSA-112 on cell viability. FIG. 3D depicts INS-1E cell proliferation. Cells were prepared for the experiment as described above. After 24 h the cells were colored by trypan blue and counted as described in Methods *p<0.05, n=6. MEAN±SE.
FIG. 7, comprising FIG. 7A through FIG. 7G, depicts the evaluation of the biological activity of HSA-28P in INS-1E cells. FIG. 7A depicts dose-response analysis of the effect of HSA-28P on the rate of insulin secretion in INS-1E cells. The INS-1E cells were grown and trypsinized as described in Methods. Subsequently, cells were mixed with the indicated concentrations of HSA-28P (red columns), non-relevant peptide nanoparticles (NRPNP, green columns), and naked nanoparticles (NP, blue columns) and were seeded in 12-well plates. After 24 h the cells were taken to a GSIS in the presence of 2.5 mM (weak color bars) or 16.7 mM (strong color bars) glucose. FIG. 7B depicts time-course analysis of the effect of HSA-28P on the rate of insulin secretion in INS-1E cells. The INS-1E cells were prepared for the experiment as described above with 1.34 μM of both HSA-28P or NRPNP, and 0.76 μg/ml of NP. After incubation for the time indicated in the graph, the cells were taken to a GSIS as described in Methods. FIG. 7C depicts the measurement of insulin content. The RIA-assay was performed for INS-1E lysates. FIG. 7D depicts the Effect of HSA-28P on the cells viability under oxidative stress conditions. INS-1E cells were incubated for 24 h with a medium supplemented with HSA-28P (3 μM), or HSA-28P1/2 (1.5 μM), or NPs covered by phantom random peptide (PPNP, 3 μM), or NP (0.76 μg/ml), or HSA-28 (3 μM) and trolox, as a positive antioxidant control (1 mM). After the incubation time, 50 mU/ml of glucose oxidase (GO) was added for an additional 1.15 h. Upon completion of the experiments, a standard MTT assay was conducted as described in Methods. Cell viability is presented as a percentage in comparison to non-treated cells. FIG. 7E depicts the effect of HSA-28P on the cell proliferation rate. Experiments were conducted on INS-1E cells that were seeded in 6-well plates. INS-1E cells were treated as described in Panel D. Cells were detached by trypsin and counted as described in Methods and then were visualized with a Cells Sense Live Imaging microscope. FIG. 7F depicts light microscope images of untreated cells. FIG. 7G depicts light microscope images of cells that were treated with HSA-28P. *p<0.05, n=3. MEAN±SE. […]

Compound | effect on GSIS in isolated mouse islets (isolated mouse islets) | amount of cells / proliferation rate (INS-1E cells [1]) | effect on insulin secretion (INS-1E cells [2]) | effect on GSIS (INS-1E cells [3])
N=C(N)NCCC[C@H](N)C(=O)O [L-arginine] | significantly raised GSIS | – | – | –
QQGEFLNYD [HSA-28, short NL-2 mimetic peptide derived from the NL-4/NX-1 crystal complex] | – | has not shown any effect on the proliferation rate | had no effect | did not increase the GSIS
